Consider 37 compounds from patent publication US20230053688A1, “METHODS TO ALTER LATENCY IN EBV+ MALIGNANCIES” (Cornell University, priority 2020, published 2023).

SMILES strings stand for the structures. Structures can show the parent of a compound that is named as a salt. Where two headings read alike, the source gives them in different places.

For the test, the system named is LMP1 expression in Kem I cells. Description: microbe, parasite or virus in culture. The format is cell-based, EBV. Conditions: for Average LMP1 Fold Increase / Replicate 1-LMP1 Fold Increase / Replicate 2-LMP1 Fold Increase: Kem I cells, 48 hours; for Average LMP1 Fold Increase: average of replicates 1 and 2; for Replicate 1-LMP1 Fold Increase / Replicate 2-LMP1 Fold Increase: fold change in LMP1 transcript vs vehicle; for fold induction at 2.5 µM / fold induction at 1 µM: human gammaherpesvirus 4, 48 h.

The mark [1] stands for this setting: read-out: Average LMP1 Fold Increase, Kem I cells, 2.5 uM, 48 hours, average of replicates 1 and 2.
The mark [2] stands for this setting: read-out: Replicate 1-LMP1 Fold Increase, Kem I cells, 2.5 uM, 48 hours, fold change in LMP1 transcript vs vehicle.
Where [3] appears, read: read-out: Replicate 2-LMP1 Fold Increase, Kem I cells, 2.5 uM, 48 hours, fold change in LMP1 transcript vs vehicle.

Turning to `O=C(/C=C/c1cccc(S(=O)(=O)Nc2ccccc2)c1)NO` [Belinostat (PXD101)], under “2.5 uM”, the “Average LMP1 Fold Increase” value was determined as 51.63, the “Replicate 1-LMP1 Fold Increase” value is on record as 17.40 and the “Replicate 2-LMP1 Fold Increase” value worked out at 85.87.

For the compound `COc1c(O)cc2c(c1O)[C@@H]1O[C@H](CO)[C@@H](O)[C@H](O)[C@H]1OC2=O` [Bergenin], the fold induction at 2.5 µM turned out to be 0.86 under setting [1], 0.65 under setting [2] and 1.07 under setting [3].

As to `CC[C@H](NC(=O)[C@H](C)NC)C(=O)N1C[C@@H](O)C[C@H]1Cc1c(-c2[nH]c3cc(F)ccc3c2C[C@@H]2C[C@H](O)CN2C(=O)[C@H](CC)NC(=O)[C@H](C)NC)[nH]c2cc(F)ccc12` [Birinapant], the fold induction at 2.5 µM reads like this: under setting [1], 1.03; under setting [2], 1.05; under setting [3], 1.02.

As to `CC(C)NCC(O)COc1ccc(COCCOC(C)C)cc1` (stereo not drawn) [Bisoprolol fumarate], the fold induction at 2.5 µM came to 1.07 under setting [1], 0.41 under setting [2] and 1.73 under setting [3].

Turning to `CC(C)C[C@H](NC(=O)[C@H](Cc1ccccc1)NC(=O)c1cnccn1)B(O)O` [Bortezomib (PS-341)], for the setting “2.5 uM”, the “Average LMP1 Fold Increase” value is 77.22, the “Replicate 1-LMP1 Fold Increase” value came to 150.06 and the “Replicate 2-LMP1 Fold Increase” value turned out to be 4.38.

For `COc1ccccc1Oc1c(NS(=O)(=O)c2ccc(C(C)(C)C)cc2)nc(-c2ncccn2)nc1OCCO` [Bosentan Hydrate], the fold induction at 2.5 µM came to 0.81 under setting [1], 1.22 under setting [2] and 0.4 under setting [3].

Regarding `COc1cc(Nc2c(C#N)cnc3cc(OCCCN4CCN(C)CC4)c(OC)cc23)c(Cl)cc1Cl` [Bosutinib (SKI-606)], under “2.5 uM”, the “Average LMP1 Fold Increase” value stood at 0.81, the “Replicate 1-LMP1 Fold Increase” value came to 0.36 and the “Replicate 2-LMP1 Fold Increase” value worked out at 1.26.

For the compound `CCN[C@H]1CN(CCCOC)S(=O)(=O)c2sc(S(N)(=O)=O)cc21` [Brinzolamide], the fold induction at 2.5 µM reads like this: under setting [1], 0.21; under setting [2], 0.23; under setting [3], 0.2.

As to `CCCCN1CCCCC1C(=O)Nc1c(C)cccc1C` (stereo not drawn) [Bupivacaine HCl], the fold induction at 2.5 µM was found to be 0.59 under setting [1], 0.64 under setting [2] and 0.53 under setting [3].

Consider `NC1(Cc2ccc(Cl)cc2)CCN(c2ncnc3[nH]ccc23)CC1` [CCT128930], for which, under “2.5 uM”, the “Average LMP1 Fold Increase” value is 0.59, the “Replicate 1-LMP1 Fold Increase” value is given as 0.40 and the “Replicate 2-LMP1 Fold Increase” value is 0.78.

For `CC(C)C[C@H](NC(=O)[C@@H](NC(=O)c1cccc(-c2ccccc2)n1)[C@@H](C)O)B(O)O` [CEP-18770 (Delanzomib)], where the note is “2.5 uM”, the “Average LMP1 Fold Increase” value is 96.92, the “Replicate 1-LMP1 Fold Increase” value amounted to 98.21 and the “Replicate 2-LMP1 Fold Increase” value came to 95.63.

On to `O=C(NC(NC(=S)Nc1ccc(F)c([N+](=O)[O-])c1)C(Cl)(Cl)Cl)C(c1ccccc1)c1ccccc1` (stereo not drawn) [CGK 733], for which, for the setting “2.5 uM”, the “Average LMP1 Fold Increase” value came to 0.71, the “Replicate 1-LMP1 Fold Increase” value is given as 0.58 and the “Replicate 2-LMP1 Fold Increase” value amounted to 0.84.

On to `Nc1ncnc2n[nH]c(Nc3ccc(F)cc3)c12` [CGP 57380], for which, under “2.5 uM”, the “Average LMP1 Fold Increase” value is 1.33, the “Replicate 1-LMP1 Fold Increase” value came to 0.81 and the “Replicate 2-LMP1 Fold Increase” value is 1.86.

Regarding `CCNC(=O)[C@H]1O[C@@H](n2cnc3c(N)nc(NCCc4ccc(CCC(=O)O)cc4)nc32)[C@H](O)[C@@H]1O` [CGS 21680 HCl], the fold induction at 2.5 µM was found to be 0.7 under setting [1], 0.72 under setting [2] and 0.68 under setting [3].

For the compound `O=c1[nH]c2ccc(Cl)cc2c(N[C@@H]2CN3CCC2CC3)c1-c1nc2ccccc2[nH]1` [CHIR-124], under “2.5 uM”, the “Average LMP1 Fold Increase” value was determined as 68.46, the “Replicate 1-LMP1 Fold Increase” value came out at 105.57 and the “Replicate 2-LMP1 Fold Increase” value is on record as 31.35.

With `Cc1[nH]c2ccccc2c1CCNC(=O)c1cccs1` [CK-636], for the setting “2.5 uM”, the “Average LMP1 Fold Increase” value was 1.27, the “Replicate 1-LMP1 Fold Increase” value was 0.69 and the “Replicate 2-LMP1 Fold Increase” value came to 1.84.

Consider `C=CC(=O)Nc1cccc(Nc2nc(Nc3ccc(Oc4ccnc(C(=O)NC)c4)cc3)ncc2F)c1` [CNX-774], for which, where the note is “2.5 uM”, the “Average LMP1 Fold Increase” value came to 0.62, the “Replicate 1-LMP1 Fold Increase” value worked out at 0.51 and the “Replicate 2-LMP1 Fold Increase” value amounted to 0.73.

For `CN(C)C(=O)[C@H](O)[C@H](Cc1ccccc1)NC(=O)c1cc2cc(Cl)ccc2[nH]1` [CP-91149], for the setting “2.5 uM”, the “Average LMP1 Fold Increase” value amounted to 0.64, the “Replicate 1-LMP1 Fold Increase” value is recorded as 0.49 and the “Replicate 2-LMP1 Fold Increase” value stood at 0.80.

Take `COCCOc1ccc2c(c1)ncn2-c1ccc2cccc(N3CCC(N)CC3)c2n1` [CP-673451]: the fold induction at 2.5 µM came to 0.49 under setting [1], 0.52 under setting [2] and 0.45 under setting [3].

`O=C(O)c1cc2cccc([N+](=O)[O-])c2[nH]1` [CRT0044876]: for the setting “2.5 uM”, the “Average LMP1 Fold Increase” value is 0.44, the “Replicate 1-LMP1 Fold Increase” value came to 0.55 and the “Replicate 2-LMP1 Fold Increase” value came to 0.33.

On to `O=C(/C=C/c1ccc(O)c(O)c1)OCCc1ccccc1` [Caffeic Acid Phenethyl Ester], for which the fold induction at 2.5 µM under setting [1] stood at 0.46, the fold induction at 2.5 µM under setting [2] was determined as 0.59 and the fold induction at 2.5 µM under setting [3] came to 0.33.

Turning to `Cc1ccc([C@@H]2O[C@H](CO)[C@@H](O)[C@H](O)[C@H]2O)cc1Cc1ccc(-c2ccc(F)cc2)s1` [Canagliflozin], where the note is “2.5 uM”, the “Average LMP1 Fold Increase” value worked out at 0.63, the “Replicate 1-LMP1 Fold Increase” value is reported as 0.52 and the “Replicate 2-LMP1 Fold Increase” value is listed as 0.75.

Turning to `CCOc1nc2cccc(C(=O)O)c2n1Cc1ccc(-c2ccccc2-c2nnn[nH]2)cc1` [Candesartan], the fold induction at 2.5 µM reads like this: under setting [1], 0.43; under setting [2], 0.34; under setting [3], 0.52.

Turning to `C[C@H](CS)C(=O)N1CCC[C@H]1C(=O)O` [Captopril], the fold induction at 2.5 µM is, setting by setting: under setting [1], 0.62; under setting [2], 0.71; under setting [3], 0.52.

With `COc1ccccc1OCCNCC(O)COc1cccc2[nH]c3ccccc3c12` (stereo not drawn) [Carvedilol], the fold induction at 2.5 µM came to 0.88 under setting [1], 0.89 under setting [2] and 0.87 under setting [3].

`Cc1ccc(-c2cc(C(F)(F)F)nn2-c2ccc(S(N)(=O)=O)cc2)cc1` [Celecoxib]: the fold induction at 2.5 µM under setting [1] was determined as 0.62, the fold induction at 2.5 µM under setting [2] was 0.63 and the fold induction at 2.5 µM under setting [3] was determined as 0.62.

In the case of `COc1ccc([C@]2(C#N)CC[C@@H](C(=O)O)CC2)cc1OC1CCCC1` [Cilomilast], the fold induction at 2.5 µM is 1.06 under setting [1], 0.95 under setting [2] and 1.18 under setting [3].

In the case of `C[C@@H](NCCCc1cccc(C(F)(F)F)c1)c1cccc2ccccc12` [Cinacalcet HCl], the fold induction at 2.5 µM is, setting by setting: under setting [1], 0.75; under setting [2], 1.17; under setting [3], 0.34.

Regarding `Nc1nc(Cl)nc2c1ncn2[C@H]1C[C@H](O)[C@@H](CO)O1` [Cladribine], the fold induction at 1 µM is, setting by setting: (read-out: Average LMP1 Fold Increase, Kem I cells, 1 uM, 48 hours, average of replicates 1 and 2) 38.7; (read-out: Replicate 1-LMP1 Fold Increase, Kem I cells, 1 uM, 48 hours, fold change in LMP1 transcript vs vehicle) 71.4; (read-out: Replicate 2-LMP1 Fold Increase, Kem I cells, 1 uM, 48 hours, fold change in LMP1 transcript vs vehicle) 6.02.

`CN1CCC[C@@H]1CCO[C@](C)(c1ccccc1)c1ccc(Cl)cc1` [Clemastine Fumarate]: the fold induction at 2.5 µM is, setting by setting: under setting [1], 0.67; under setting [2], 0.64; under setting [3], 0.69.

As for `C=C1C(=O)O[C@@H]2/C=C(\C)CC/C=C(\C)CC[C@@H]12` [Costunolide], the fold induction at 2.5 µM runs as follows: under setting [1], 1.21; under setting [2], 0.79; under setting [3], 1.62.

With `CC1(COc2ccc3c(c2)ncn3-c2ccc3cccc(N4CCC(N)CC4)c3n2)COC1` [Crenolanib (CP-868596)], for the setting “2.5 uM”, the “Average LMP1 Fold Increase” value is 4.04, the “Replicate 1-LMP1 Fold Increase” value is 2.56 and the “Replicate 2-LMP1 Fold Increase” value was found to be 5.53.

As for `C[C@H]1COC2=C1C(=O)C(=O)c1c2ccc2c1CCCC2(C)C` [Cryptotanshinone], the fold induction at 2.5 µM is, setting by setting: under setting [1], 0.85; under setting [2], 0.94; under setting [3], 0.77.

With `CC(=O)O[C@]1(C(C)=O)CC[C@H]2[C@@H]3C=C(Cl)C4=CC(=O)[C@@H]5C[C@@H]5[C@]4(C)[C@H]3CC[C@@]21C` [Cyproterone Acetate], the fold induction at 2.5 µM under setting [1] was 0.26, the fold induction at 2.5 µM under setting [2] came to 0.27 and the fold induction at 2.5 µM under setting [3] is 0.24.

Regarding `Nc1ccn([C@@H]2O[C@H](CO)[C@@H](O)[C@@H]2O)c(=O)n1` [Cytarbine], where the note is “1 uM”, the “Average LMP1 Fold Increase” value worked out at 2.31, the “Replicate 1-LMP1 Fold Increase” value is listed as 2.61 and the “Replicate 2-LMP1 Fold Increase” value is listed as 2.01.

Regarding `c1ccc(CNc2nc(NCc3ccccc3)c3ccccc3n2)cc1` [DBeQ], where the note is “2.5 uM”, the “Average LMP1 Fold Increase” value was 0.99, the “Replicate 1-LMP1 Fold Increase” value was 0.72 and the “Replicate 2-LMP1 Fold Increase” value is on record as 1.25.

For `CNC(=O)c1cc(Oc2ccc(NC(=O)Nc3cc(C(C)(C)C)nn3-c3ccc4ncccc4c3)c(F)c2)ccn1` [DCC-2036 (Rebastinib)], for the setting “2.5 uM”, the “Average LMP1 Fold Increase” value is reported as 0.38, the “Replicate 1-LMP1 Fold Increase” value is 0.50 and the “Replicate 2-LMP1 Fold Increase” value is reported as 0.25.
